In article PMC11245036 (bioRxiv, 2024):

Assays:
GluA2(Q) [1] = target: T1, GluA2(Q) (Rattus norvegicus, UniProt P19491); assay: cryo-EM structure; type: binding
GluA2(E) = GluA2(E) (Rattus norvegicus, UniProt P19491, Q607E); assay: whole-cell patch clamp in HEK-293 cells, -60 mV; type: cell-based
GluA2(Q) [2] = target: T1, GluA2(Q); assay: cryo-EM structure with glutamate and CTZ; type: cell-based
GluA1 = GluA1 (Rattus norvegicus, UniProt P19490); assay: whole-cell patch clamp in HEK-293 cells, -60 mV; type: cell-based
Chain of GluA1 (P19490 19-907): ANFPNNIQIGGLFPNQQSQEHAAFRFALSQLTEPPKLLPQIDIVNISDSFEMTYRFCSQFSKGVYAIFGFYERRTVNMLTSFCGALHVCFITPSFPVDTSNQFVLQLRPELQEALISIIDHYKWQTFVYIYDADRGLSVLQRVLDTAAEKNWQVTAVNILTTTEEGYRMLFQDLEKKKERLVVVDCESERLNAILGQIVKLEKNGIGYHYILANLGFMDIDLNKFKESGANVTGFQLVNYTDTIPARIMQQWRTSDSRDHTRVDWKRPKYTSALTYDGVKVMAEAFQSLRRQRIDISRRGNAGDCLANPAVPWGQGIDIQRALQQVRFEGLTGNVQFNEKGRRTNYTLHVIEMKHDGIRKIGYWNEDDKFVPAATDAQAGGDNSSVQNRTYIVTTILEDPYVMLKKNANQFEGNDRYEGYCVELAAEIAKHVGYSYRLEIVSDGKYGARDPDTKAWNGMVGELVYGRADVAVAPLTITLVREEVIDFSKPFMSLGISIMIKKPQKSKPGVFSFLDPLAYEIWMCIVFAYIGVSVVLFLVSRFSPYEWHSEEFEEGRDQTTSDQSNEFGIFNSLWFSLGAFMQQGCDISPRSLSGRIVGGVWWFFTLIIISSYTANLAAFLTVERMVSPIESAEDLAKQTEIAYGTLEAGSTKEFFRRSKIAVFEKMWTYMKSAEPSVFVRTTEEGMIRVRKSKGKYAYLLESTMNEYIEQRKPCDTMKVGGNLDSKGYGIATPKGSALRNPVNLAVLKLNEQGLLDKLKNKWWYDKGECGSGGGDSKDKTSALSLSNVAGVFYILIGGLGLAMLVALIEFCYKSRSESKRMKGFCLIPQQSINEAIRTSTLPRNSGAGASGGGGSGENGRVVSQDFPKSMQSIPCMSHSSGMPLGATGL

[3] = target: GluA2(Q) subunit, as part of the fusion construct GluA2-γ2EM (rat) (UniProt P19491); assay: cryo-EM structure

Question: For NS(=O)(=O)c1cc2c(cc1Cl)NC(C1CC3C=CC1C3)NS2(=O)=O (centres unmarked) [CTZ], which “cryo-EM structure (GluA2-γ2mem), 100 μM CTZ” value (GluA2(Q) [1]) is on record?
Answer: Glutamate (yellow), CTZ (purple), and memantine (cyan) are shown as space filling models.

Question: Which IC50 (GluA2(E)) does the source give for CC12CC3CC(C)(C1)CC(N)(C3)C2 [memantine] here?
Answer: 25 ± 2 µM

Question: And the IC50 (GluA2(Q) [2])?
Answer: 49 ± 2 µM

Question: And the IC50 (GluA1)?
Answer: 10 ± 2 µM

Question: How did the stoichiometry N [3] turn out when “GluA2(Q) subunit, as part of the fusion construct GluA2-γ2EM (from UniProt P19491-2 22-883) (receptor)” was run?
Answer: 4
